Reference: ChEMBL document CHEMBL1125761, “Synthesis of water-soluble (aminoalkyl)camptothecin analogues: inhibition of topoisomerase I and antitumor activity” (J Med Chem, 1991)

Experiments:
[1] = species on record: Mus musculus; test: Maximally tolerated dose in mice bearing L1210 leukemia.; assay type: functional
[2] = tested on: L1210; test: Inhibitory activity […] bearing L1210 leukemia; assay type: functional, cell-based, Mus musculus
[3] = species on record: Mus musculus; test: Effect in increasing life span of mice bearing L1210 leukemia; assay type: functional
[4] = species on record: Mus musculus; test: Compound tested for maximally tolerated dose in mice bearing L1210 leukemia; No toxicity was observed; assay type: functional

SMILES | MTD [1] | IC50 ([2]; Mus musculus, L1210) | ILS [3] | MTD [4] | IC50 ([2]; l1210)
CC[C@@]1(O)C(=O)OCc2c1cc1n(c2=O)Cc2cc3c(CN(C)c4ccccc4)c(O)ccc3nc2-1 | 83 µM/kg | 69 nM | 138% |  | 
CC[C@@]1(O)C(=O)OCc2c1cc1n(c2=O)Cc2cc3c(C=O)c(O)ccc3nc2-1 |  | 260 nM | >75% | 102 µM/kg | 
CCOCc1c(O)ccc2nc3c(cc12)Cn1c-3cc2c(c1=O)COC(=O)[C@]2(O)CC | 56 µM/kg | 48 nM | 125% |  | 
CC[C@@]1(O)C(=O)OCc2c1cc1n(c2=O)Cc2cc3c(CN(C)C)cccc3nc2-1 | 29 µM/kg | 65 nM | 88% |  | 
CC[C@@]1(O)C(=O)OCc2c1cc1n(c2=O)Cc2cc3c(CC#N)c(O)ccc3nc2-1 | 28 µM/kg | 400 nM | >200% |  | 
CCC1(O)C(=O)OCc2c1cc1n(c2=O)Cc2c-1nc1ccccc1c2CCN(C)C(=O)OCc1ccccc1 (stereo not drawn) | 128 µM/kg | 62 nM | 62% |  | 
CC[C@@]1(O)C(=O)OCc2c1cc1n(c2=O)Cc2cc3c(COCCN(C)C)c(O)ccc3nc2-1 | 50 µM/kg | 180 nM | 188% |  | 
CCC1(O)C(=O)OCc2c1cc1n(c2=O)Cc2c-1nc1ccc(CC#N)cc1c2C (stereo not drawn) | 6.4 µM/kg | 7.5 nM | 106% |  | 
CC[C@@]1(O)C(=O)OCc2c1cc1n(c2=O)Cc2cc3c(CCN)c(O)ccc3nc2-1 | 210 µM/kg | 360 nM | 75% |  | 
CC[C@@]1(O)C(=O)OCc2c1cc1n(c2=O)Cc2cc3cc(C#N)ccc3nc2-1 | 7.8 µM/kg | 80 nM | 100% |  | 
CC[C@@]1(O)C(=O)OCc2c1cc1n(c2=O)Cc2cc3c(C)cccc3nc2-1 | 15 µM/kg | 70 nM | >200% |  | 
CC[C@@]1(O)C(=O)OCc2c1cc1n(c2=O)Cc2cc3c(C[N+](C)(C)C)c(O)ccc3nc2-1 | 68 µM/kg | 150 nM | >200% |  | 
CC[C@@]1(O)C(=O)OCc2c1cc1n(c2=O)Cc2cc3cc(P(=O)(O)O)ccc3nc2-1 |  | 26000 nM |  | 155 µM/kg | 
CC[C@@]1(O)C(=O)OCc2c1cc1n(c2=O)Cc2cc3c(CNCCN(C)C)c(O)ccc3nc2-1 |  | 49 nM | >94% | 78 µM/kg | 
CC[C@@]1(O)C(=O)OCc2c1cc1n(c2=O)Cc2cc3cc(CN)ccc3nc2-1 | 160 µM/kg | 90 nM | 112% |  | 
CC[C@@]1(O)C(=O)OCc2c1cc1n(c2=O)Cc2cc3c(CSCCN(C)C)c(O)ccc3nc2-1 |  | 12 nM | >112% | 76 µM/kg | 

SMILES | MTD [1] | IC50 ([2]; Mus musculus, L1210) | ILS [3] | MTD [4] | IC50 ([2]; l1210)
CC[C@@]1(O)C(=O)OCc2c1cc1n(c2=O)Cc2cc3c(CN4CCOCC4)c(O)ccc3nc2-1 | 190 µM/kg | 370 nM | 83% |  | 
CCC1(O)C(=O)OCc2c1cc1n(c2=O)Cc2c-1nc1ccc(CCN)cc1c2C (stereo not drawn) | 68 µM/kg | 29 nM | >33% |  | 
CC[C@@]1(O)C(=O)OCc2c1cc1n(c2=O)Cc2cc3c(CNC4CC4)c(O)ccc3nc2-1 | 48 µM/kg | 130 nM | 131% |  | 
CC[C@@]1(O)C(=O)OCc2c1cc1n(c2=O)Cc2cc3c(CN4CCOCC4)cccc3nc2-1 | 29 µM/kg | 690 nM | 144% |  | 
CCC1(O)C(=O)OCc2c1cc1n(c2=O)Cc2c-1nc1ccccc1c2CCNC (stereo not drawn) | 122 µM/kg | 44 nM | 43% |  | 
CC[C@@]1(O)C(=O)OCc2c1cc1n(c2=O)Cc2cc3c(CN4CCN(C)CC4)c(O)ccc3nc2-1 |  | 72 nM | >200% | 74 µM/kg | 
CC[C@@]1(O)C(=O)OCc2c1cc1n(c2=O)Cc2cc3c(CNC4CCCCC4)c(O)ccc3nc2-1 | 47 µM/kg | 56 nM | >200% |  | 
CC[C@@]1(O)C(=O)OCc2c1cc1n(c2=O)Cc2cc3c(CN4CCC(N5CCCCC5)CC4)c(O)ccc3nc2-1 |  | 270 nM | >44% | 77 µM/kg | 
CC[C@@]1(O)C(=O)OCc2c1cc1n(c2=O)Cc2cc3c(CNCCO)c(O)ccc3nc2-1 | 82 µM/kg | 250 nM | 62% |  | 
CCc1c2c(nc3ccc(O)cc13)-c1cc3c(c(=O)n1C2)COC(=O)[C@]3(O)CC [7-ETHYL-10-HYDROXYCAMPTOTHECIN] | 86 µM/kg |  | 144% |  | 
CC[C@@]1(O)C(=O)OCc2c1cc1n(c2=O)Cc2cc3c(N)cccc3nc2-1 [9-AMINOCAMPTOTHECIN] | 8.9 µM/kg | 12 nM | 94% |  | 
CC[C@@]1(O)C(=O)OCc2c1cc1n(c2=O)Cc2cc3ccccc3nc2-1 [CAMPTOTHECIN] | 22 µM/kg | 23 nM | 118% |  | 
CC[C@@]1(O)C(=O)OCc2c1cc1n(c2=O)Cc2cc3cc(O)ccc3nc2-1 [HYDROXYCAMPTOTHECIN] | 21 µM/kg |  | 78% |  | 18 nM
CCc1c2c(nc3ccc(OC(=O)N4CCC(N5CCCCC5)CC4)cc13)-c1cc3c(c(=O)n1C2)COC(=O)[C@]3(O)CC [IRINOTECAN] | 245 µM/kg |  |  |  | 
CC[C@@]1(O)C(=O)OCc2c1cc1n(c2=O)Cc2cc3c(CN(C)C)c(O)ccc3nc2-1 [TOPOTECAN] | 30 µM/kg |  | 173% |  | 
